# Values of other authors as cited in US20060188529A1 (priority 2004, published 2006).
# Tested on: apo EKO mice
# [1] = fenofibrate added to phytosterols
smiles,measurement,setting,value
"CC(C)OC(=O)C(C)(C)Oc1ccc(C(=O)c2ccc(Cl)cc2)cc1 [fenofibrate, 2-[4-(4-chlorobenzoyl)phenoxy]-2-methyl-propanoic acid, 1-methylethyl ester]",effect on plasma triglyceride levels,combination of fenofibrate to phytosterols,no effect
same,decrease of HDL cholesterol concentrations,[1],50%
same,increase of plasma total cholesterol levels,[1],> 50%
